Results taken from ChEMBL document CHEMBL1140446, “Designed multiple ligands. An emerging drug discovery paradigm” (J Med Chem, 2005).

What was measured:
[1] = target: T1, Endothelin-1 receptor (Homo sapiens, UniProt P25101); experiment: Inhibitory concentration against endothelin receptor type A
T1 sequence (P25101 whole entry): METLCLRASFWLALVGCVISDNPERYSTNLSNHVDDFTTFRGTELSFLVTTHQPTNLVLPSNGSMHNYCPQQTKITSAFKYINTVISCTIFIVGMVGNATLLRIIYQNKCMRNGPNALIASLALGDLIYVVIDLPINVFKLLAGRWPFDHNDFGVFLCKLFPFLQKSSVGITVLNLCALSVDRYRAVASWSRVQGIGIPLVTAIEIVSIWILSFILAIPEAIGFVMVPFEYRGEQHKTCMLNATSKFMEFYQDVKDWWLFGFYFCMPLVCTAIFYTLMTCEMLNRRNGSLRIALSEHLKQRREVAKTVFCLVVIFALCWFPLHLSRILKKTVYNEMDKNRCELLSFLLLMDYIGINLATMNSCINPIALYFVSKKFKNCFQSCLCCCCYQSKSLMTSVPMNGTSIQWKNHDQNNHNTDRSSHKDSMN

[2] = target: Endothelin receptor type B (Homo sapiens, UniProt P24530)
Description: Inhibitory concentration against endothelin receptor type B

[3] = target: T2, Type-1 angiotensin II receptor (Homo sapiens, UniProt P30556)
T2 sequence (P30556 whole entry): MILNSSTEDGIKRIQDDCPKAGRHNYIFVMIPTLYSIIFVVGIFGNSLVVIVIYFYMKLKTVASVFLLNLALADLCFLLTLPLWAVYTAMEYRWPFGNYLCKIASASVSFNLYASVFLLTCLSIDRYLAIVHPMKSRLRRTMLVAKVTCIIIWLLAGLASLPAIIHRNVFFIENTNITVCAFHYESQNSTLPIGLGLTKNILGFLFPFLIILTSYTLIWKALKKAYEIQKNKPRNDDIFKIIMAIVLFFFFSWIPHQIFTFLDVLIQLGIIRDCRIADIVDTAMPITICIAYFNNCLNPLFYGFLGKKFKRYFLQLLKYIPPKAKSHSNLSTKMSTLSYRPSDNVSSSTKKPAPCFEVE
Description: Inhibitory concentration against angiotensin II receptor, type 1

[4] = target: T3, Type-2 angiotensin II receptor (Homo sapiens, UniProt P50052)
T3 sequence (P50052 whole entry): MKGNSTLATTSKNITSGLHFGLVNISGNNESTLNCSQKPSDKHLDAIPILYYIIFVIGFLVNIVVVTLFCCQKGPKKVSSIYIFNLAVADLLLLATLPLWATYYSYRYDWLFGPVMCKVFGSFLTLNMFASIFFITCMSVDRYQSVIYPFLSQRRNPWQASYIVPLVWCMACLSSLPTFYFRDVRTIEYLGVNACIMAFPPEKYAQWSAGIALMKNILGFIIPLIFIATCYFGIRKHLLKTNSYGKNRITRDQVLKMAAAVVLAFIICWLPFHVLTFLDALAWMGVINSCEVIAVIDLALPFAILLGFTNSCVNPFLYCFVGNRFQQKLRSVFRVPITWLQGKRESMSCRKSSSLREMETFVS
Description: Inhibitory concentration against angiotensin II receptor, type 2

Endothelin receptor type B, sequence (P24530 whole entry): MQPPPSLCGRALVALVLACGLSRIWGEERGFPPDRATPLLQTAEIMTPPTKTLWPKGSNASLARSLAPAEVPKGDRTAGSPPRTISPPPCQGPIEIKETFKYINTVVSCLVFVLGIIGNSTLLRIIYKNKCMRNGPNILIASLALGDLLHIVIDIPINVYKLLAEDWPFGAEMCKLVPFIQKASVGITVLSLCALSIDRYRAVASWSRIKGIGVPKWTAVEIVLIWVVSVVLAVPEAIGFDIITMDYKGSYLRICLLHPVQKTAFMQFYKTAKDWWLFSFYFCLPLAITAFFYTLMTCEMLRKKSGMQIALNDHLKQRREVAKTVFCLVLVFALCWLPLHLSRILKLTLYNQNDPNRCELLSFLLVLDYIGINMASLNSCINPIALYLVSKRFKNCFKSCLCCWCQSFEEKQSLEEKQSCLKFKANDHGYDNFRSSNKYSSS

SMILES: CCCc1cc(Cn2c(CC)nc3c(C)cc(C)nc32)ccc1OC(C(=O)NS(=O)(=O)c1ccc(C(C)C)cc1)c1ccc2c(c1)OCC2 (centres undefined)
- IC50 [1]: 0.024 µM
- IC50 [2]: 0.06 µM
- IC50 [3]: 0.013 µM
- IC50 [4]: 0.032 µM
